# Laboratory results from US9320745B2, “Use of cholest-4-en-3-one derivatives for obtaining a cytoprotective drug” (TROPHOS, priority 2006, dated 2016).
# Legend:
# caspase-3 = experiment: Apoptosis by caspase-3 activity measurement in doxorubicin-exposed cardiomyocytes; format: cell-based, rabbit; conditions: 8 hrs after exposure, control 18±9 fmol/min
# Protocol: (§1) Isolated ventricular cells are obtained from New Zealand male rabbit hearts as described in A. d'Anglemont de Tassigny et al., Fund. Clin. Pharmacol., 18: pp. 531-38, 2004. Briefly, the rabbits (2.0-2.5 kg) are anaesthesized with a pentobarbital (50 mg/kg) solution and then receive heparin (200 IU/kg). The hearts are excised and immediately perfused, for 10-15 minutes by means of a Langendorff apparatus without recirculation with an oxygenated (calcium-free) tyrode isotonic solution (95%, 2-5% CO2) (in mM: NaCl 135, KCl 5.4, Na2PO4 0.33, MgCl2 1.0, HEPES 10, pH adjusted to 7.4 with 1N NaOH at 37° C., 280-300 mOsmol/kgH2O). Next, all the hearts were perfused for 3 minutes in a “recirculation” mode with the same calcium-free Tyrode solution (coronary flow rate, 10-15 mL/min) added with 1 mg/mL of type II collagenase and 0.28 mg/mL of type XIV protease. Finally all the hearts are perfused in a mode without recirculation with the same solution of Tyrode supplemented with 0.3 mM CaCl2 for 10 min. The left ventricle is removed and cut into small pieces; cell dissociation is achieved by mild mechanical stirring. Extracellular calcium is added by increments every 15 minutes, in order to reach a physiological concentration of 1.0 mM. The isolated myocytes are maintained in a medium without serum containing (in mM) NaCl 110, KCl 5.4, Na2PO4 0.33, NaHCO3 25, Glucose 5, MgCl2 0.8, CaCl2 1, pH adjusted to 7.4, right up to 1 h30 before experimentation.
# Caspase-3 activity is used as a quantitative method for measuring apoptosis. Briefly, the cells are lysed and the supernatant is used for caspase-3 activity measurement by using the AK-005 kit (Biomol Research Laboratories, Plymouth Meeting, Pa., USA). The fluorogenic substrate for measuring caspase-3 activity (DEVD) is marked with the fluorochrome, 7-amino-4-methyl coumarin (AMC) which produces […] fluorescence detectable in UV light at 360/460 nm for 210 min. AMC is released from the substrate by cleavage by caspase-3, the expression of the enzyme is expressed in fmol/min.
# Apoptosis is induced in isolated cardiomyocytes by exposing them for 3 to 8 hrs to 1 μM of doxorubicin added in an isotonic solution containing (in mM) NaCl 110, KCl 5.4, Na2PO4 0.33, NaHCO3 25, Glucose 5, MgCl2 0.8, CaCl2 1, pH adjusted to 7.4. Annexin V marking was carried out 3 hrs after the beginning of exposure to doxorubicin since this phenomenon appears very early in the apoptotic cascade. Caspase-3 activity measurements were conducted 8 hrs after exposure to doxorubicin since this phenomenon takes place later in the apoptosis phenomenon. The contractility of cardiomyocytes was measured every hour during the 8 hrs of exposure to doxorubicin. After all the treatments, the cells were compared with control cardiomyocytes not exposed to doxorubicin. […]
# [1] = test system: rabbit ventricular cardiomyocytes; experiment: Apoptosis by annexin V marking in doxorubicin-exposed cardiomyocytes; format: cell-based; conditions: 3 hrs after doxorubicin, control 100%
# Protocol: as §1
# Marking phosphatidylserine with annexin V was used as a quantitative method for measuring apoptosis by using the MiniMacs cell isolation kit (Miltenyi Biotec, Bergisch, Gladbach, Germany). Briefly, the cells exposing phosphatidylserine are marked with annexin V microbeads magnetically, and then passed into a column placed in a magnetic field. The marked cells (which have magnetically marked phosphatidylserine) are retained in the column whereas the non-marked ones (necrotic cells and non-apoptotic cells) are not retained. The column is removed from the magnetic field; the magnetically retained cells exposing phosphatidylserine are eluted as a positive fraction and counted with a Mallassez cell counter. The percentage of apoptotic cells is then referred to the initial number of cells.
# (§2) Apoptosis is induced in isolated cardiomyocytes by exposing them for 3 to 8 hrs to 1 μM of doxorubicin added in an isotonic solution containing (in mM) NaCl 110, KCl 5.4, Na2PO4 0.33, NaHCO3 25, Glucose 5, MgCl2 0.8, CaCl2 1, pH adjusted to 7.4. Annexin V marking was carried out 3 hrs after the beginning of exposure to doxorubicin since this phenomenon appears very early in the apoptotic cascade. […] The contractility of cardiomyocytes was measured every hour during the 8 hrs of exposure to doxorubicin. […]
# monkeys = experiment: Toxicological study in monkeys; format: in vivo; conditions: oral, increasing daily doses up to 1,500 mg/kg over 10 days
# [2] = test system: rabbit ventricular cardiomyocytes; experiment: Contractile dysfunction test induced by doxorubicin (sarcomere shortening of isolated cardiomyocytes); format: cell-based
# Protocol: as §1
# The myocytes are transferred into a chamber at 37° C., continuously perfused and positioned on the stage of an inverted microscope. The chamber is perfused with a physiological buffer containing (in mM): NaCl-140; KCl 5.4; CaCl2 1; MgCl2 0.8; HEPES 10 and glucose 5.6 (pH=7.4; 290 mOsmol/kgH2O).
# Contraction of the myocytes is induced once a second (1 Hz) with platinum field electrodes placed in the chamber and connected to a simulator. The images are captured continuously with a ×20 objective and transmitted to a CCD camera at a rate of 240 samples/s. […]
# The myocytes were selected for the study according to the following criterion: a rod-like aspect with very apparent striations and no intracellular vacuola, no spontaneous contraction when they are stimulated with 1 mM Ca^2+, and with constant rest length and contraction amplitude. The length of the sarcomers was measured by a video image analysis program and the data were captured at a rate of 240 samples/s. […]
# as §2, with “7.4.” for “7.4. Annexin V marking was carried out 3 hrs after the beginning of exposure to doxorubicin since this phenomenon appears very early in the apoptotic cascade.”
# mice = experiment: Toxicological study in mice; format: in vivo; conditions: oral, sub-cutaneous, intra-peritoneal and intravenous routes, doses up to 300 mg/kg/day, daily, as far as 28 days
# Male CD1 adult mice = experiment: In vivo model of acute hepatotoxicity induced by Jo2 anti-Fas antibody (ALAT assay, survival)
# Source text: An acute hepatic damage model may be induced by a single injection of the Jo2 anti-Fas antibody (Ogasawara et al., Nature, August 1993), producing severe hepatic damages and resembling viral, auto-immune or drug-induced hepatitis.
# Alanine Aminotransferase (ALAT) also called Serum Glutamic Pyruvic Transaminase (SGPT) is an enzyme present in hepatocytes.
# The conducted experimentation consisted in intoxicating animals with Jo2 followed by an assay of ALATs and of testing the cholest-4-en-3-one oxime capability of protecting hepatocytes.
# Male CD1 adult mice from the breeder “Elevage Janvier”, (Le Genest-Saint-Isle, France) were used. The animals were identified individually and had free access to water and food.
# The stock solution of monoclonal hamster anti-mouse CD95 (Fas) antibody called Jo2, from Pharmingen (BD Biosciences, ref. 554254 batch 66081) is at a concentration of 1 mg/mL in water. The dilutions used are produced in 0.9% sodium chloride in water.
# The desired amount of cholest-4-en-3-one oxime is weighed and milled into a fine powder, and then suspended (60 mg/ml) in maize oil. The compound is administered orally (by force-feeding) at a concentration of 5 ml/kg.
# A pre-treatment with cholest-4-en-3-one oxime is carried out at a dose of 300 mg/kg per oral administration 4 hrs before administering the Jo2 antibody. […]
SMILES,caspase-3 activity (caspase-3; doxorubicin + 0.3 μM compound) [fmol/min],caspase-3 activity (caspase-3; doxorubicin + 1 μM compound) [fmol/min],caspase-3 activity (caspase-3; doxorubicin + 3 μM compound) [fmol/min],change in % of annexin V marking ([1]; doxorubicin + 0.3 μM compound) [%],change in % of annexin V marking ([1]; doxorubicin + 1 μM compound) [%],change in % of annexin V marking ([1]; doxorubicin + 3 μM compound) [%],toxicity (monkeys),"shortening of the peak relatively to the base line ([2]; 0.3 μM compound, 15 min pretreatment, 1 μM doxorubicin, after 4 hrs of exposure) [%]","shortening of the peak relatively to the base line ([2]; 1 μM compound, 15 min pretreatment, 1 μM doxorubicin, after 4 hrs of exposure) [%]","shortening of the peak relatively to the base line ([2]; 3 μM compound, 15 min pretreatment, 1 μM doxorubicin, after 4 hrs of exposure) [%]",toxicity (mice),"ALAT activity (U/L) Mean +/− SEM (n) (Male CD1 adult mice; 300 mg/kg oral 4 hrs before Jo2 125 μg/kg i.p., measured 24 hrs after Jo2, control 2,586 ± 474, p = 0.0037)","death of mice within 24 hrs following the Jo2 injection (Male CD1 adult mice; 300 mg/kg oral, 4 hrs before the Jo2 antibody)",caspase-3 activity (caspase-3; 1 μM doxorubicin alone) [fmol/min],change in % of annexin V marking ([1]; 1 μM doxorubicin alone) [%],"shortening of the peak relatively to the base line ([2]; 1 μM doxorubicin alone, after 4 hours of exposure, control −19.49±2.06%, n=5) [%]"
CC(C)CCC[C@@H](C)[C@H]1CC[C@H]2[C@@H]3CCC4=CC(=NO)CC[C@]4(C)[C@H]3CC[C@]12C [cholest-4-en-3-one oxime],33 ± 9,18 ± 8,11 ± 4,130,121,115.5,did not reveal any toxicity,−25.35±0.18,−15.66±5.72,−13.95±3.17,did not show any significant toxicity,"1,136 ± 175 (20) U/L",prevent the death of mice,–,–,–
"COc1cccc2c1C(=O)c1c(O)c3c(c(O)c1C2=O)C[C@@](O)(C(=O)CO)C[C@@H]3O[C@H]1C[C@H](N)[C@H](O)[C@H](C)O1 [doxorubicin, reference compound]",–,–,–,–,–,–,–,–,–,–,–,–,–,120 ± 15,291,−53.20±7.70
